Like-named read-outs stand apart in the source and are kept apart here.
Target: T1, human APJ receptor (Homo sapiens, UniProt P35414)
T1 construct: expressed in transfected cells
T1 sequence (P35414 1-380): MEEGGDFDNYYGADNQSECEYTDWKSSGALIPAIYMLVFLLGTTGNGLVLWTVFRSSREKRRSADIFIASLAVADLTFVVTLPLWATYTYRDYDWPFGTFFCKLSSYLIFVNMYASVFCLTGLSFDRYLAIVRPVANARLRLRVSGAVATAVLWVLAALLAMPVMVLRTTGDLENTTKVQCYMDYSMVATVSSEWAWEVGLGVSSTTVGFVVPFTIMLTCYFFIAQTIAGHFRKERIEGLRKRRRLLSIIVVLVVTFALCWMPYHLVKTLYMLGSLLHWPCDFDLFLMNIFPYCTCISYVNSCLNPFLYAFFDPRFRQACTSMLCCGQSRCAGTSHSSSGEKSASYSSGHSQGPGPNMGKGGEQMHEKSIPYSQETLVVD
Assay: Intracellular cAMP accumulation assay (APJ hcAMP, HTRF)
Assay type: cell-based
Experimental: Intracellular cAMP Accumulation Assay
HEK293 cells stably expressing human APJ receptor were used to assess the activity of compounds. Cultured cells were detached and resuspended in the cAMP Homogeneous Time-Resolved Fluorescence (HTRF) assay buffer (Cisbio cat; #62AM4PEJ). The assay was performed in 384-well assay plates (Perkin-Elmer; cat #6008289) according to assay protocol provided by the manufacturer. Serial dilutions of a compound together with assay buffer containing […] IBMX and 2 μM forskolin were added to each well containing 5,000 cells and incubated for 30 minutes at room temperature. Subsequently, cAMP D2 reagent was added in the lysis buffer followed by the EuK antibody (Cisbio; cat #62AM4PEJ) and incubated for 60 min. The fluorescence emission ratio was measured using fluorometer. The intracellular cAMP concentrations (compound-stimulated inhibition of forskolin-mediated cAMP production) were calculated by extrapolation from a standard curve using known cAMP concentrations. The EC50 values were obtained by fitting the data to a sigmoidal concentration-response curve with variable slope. The maximal achievable inhibition of forskolin-induced cAMP levels (Ymax) for each compound was expressed as relative percentage of inhibition attained using pyroglutamated apelin-13 ((Pyrl)apelin-13) peptide, which was set to 100%.
The exemplified Examples disclosed below were tested in the APJ in vitro assays described above and were found having human APJ cyclic AMP (hcAMP) activity. Table 1 lists hcAMP EC50 values measured for the following examples. Ranges are as followε: A=0.0-10 nM; B=10.01-100 nM; C=101-500 nM.

[1] = Table 1, HEK293 cells stably expressing human APJ receptor, inhibition of forskolin-mediated cAMP production, read-out: APJ hcAMP EC50
[2] = human APJ, cAMP, potency range class, read-out: APJ cAMP Human EC50
[3] = Table 3, HEK293 cells stably expressing human APJ receptor, read-out: APJ cAMP Human EC50

SMILES	EC50 [1]	EC50 [2]	EC50 [3]
CCC[C@@H](NC(=O)c1ccc(-c2c(Cl)cccc2-c2nc3ccc(F)c(F)c3[nH]2)c(C(=O)O)c1)C1CCCCC1 (atropisomer, axis not shown) [Example 159, (S)-2′-chloro-4-{[(1R)-1-cyclohexylbutyl]carbamoyl}-6′-(6,7-difluoro-1H-1,3-benzodiazol-2-yl)-[1,1′-biphenyl]-2-carboxylic acid]	< 10 nM	< 10 nM	
CCC[C@@H](NC(=O)c1ccc(-c2c(Cl)cccc2-c2nc3cc(F)c(F)cc3[nH]2)c(C(=O)O)c1)C1CCCCC1 (atropisomer, axis not shown) [Example 162, (S)-2′-chloro-4-{[(1R)-1-cyclohexylbutyl]carbamoyl}-6′-(5,6-difluoro-1H-1,3-benzodiazol-2-yl)-[1,1′-biphenyl]-2-carboxylic acid]	< 10 nM	< 10 nM	
O=C(NC(CCC(F)(F)F)c1ccccc1)c1ccc(-c2cc(Cl)ccc2-c2nc3ccccc3[nH]2)c(C(=O)O)c1 (racemic) [Example 158, 2′-(1H-Benzo[d]imidazol-2-yl)-5′-chloro-4-((4,4,4-trifluoro-1-phenylbutyl)carbamoyl)-[1,1′-biphenyl]-2-carboxylic acid]	10 to 100 nM	10 to 100 nM	
CCC[C@@H](NC(=O)c1ccc(-c2c(C)cccc2-c2nc3cc(C(F)(F)F)ccc3[nH]2)c(C(=O)O)c1)c1ccccc1 (single isomer, unassigned) [Example 146]	< 10 nM		< 10 nM
CCC[C@@H](NC(=O)c1ccc(-c2c(C)cccc2-c2nc3cc(C(F)(F)F)ccc3[nH]2)c(C(=O)O)c1)c1ccccc1 (single isomer, unassigned) [Example 147]			101 to 500 nM
CCCC(NC(=O)c1ccc(-c2c(Cl)cccc2-c2nc3cc(Cl)c(F)cc3[nH]2)c(C(=O)O)c1)C1CCCCC1 (single isomer, unassigned) [Example 161]	< 10 nM	< 10 nM	
CCCC(NC(=O)c1ccc(-c2c(Cl)cccc2-c2nc3ccccc3[nH]2)c(C(=O)O)c1)c1c(C)cc(C)cc1C (single isomer, unassigned) [Example 163]	< 10 nM	< 10 nM	
CCCC(NC(=O)c1ccc(-c2c(Cl)cccc2-c2nc3ccccc3[nH]2)c(C(=O)O)c1)c1ccc(Cl)cc1OC (single isomer, unassigned) [Example 164]	< 10 nM	< 10 nM	
CCCC(NC(=O)c1ccc(-c2c(Cl)cccc2-c2nc3ccccc3[nH]2)c(C(=O)O)c1)c1ccc(F)cc1OC (single isomer, unassigned) [Example 165]	< 10 nM	< 10 nM	
CCCC(NC(=O)c1ccc(-c2c(Cl)cccc2-c2nc3ccccc3[nH]2)c(C(=O)O)c1)c1ccc(Cl)cc1OC (single isomer, unassigned) [Example 166]	< 10 nM		
CCCC(NC(=O)c1ccc(-c2c(Cl)cccc2-c2nc3ccccc3[nH]2)c(C(=O)O)c1)c1ccncc1 (single isomer, unassigned) [Example 168]	< 10 nM	< 10 nM	
CCCC(NC(=O)c1ccc(-c2c(Cl)cccc2-c2nc3ccccc3[nH]2)c(C(=O)O)c1)c1ccccc1Cl (single isomer, unassigned) [Example 169]	< 10 nM	< 10 nM	
CCCC(NC(=O)c1ccc(-c2c(Cl)cccc2-c2nc3ccccc3[nH]2)c(C(=O)O)c1)c1cccc(F)c1 (single isomer, unassigned) [Example 171]	< 10 nM	< 10 nM	
CCCC(NC(=O)c1ccc(-c2c(Cl)cccc2-c2nc3ccccc3[nH]2)c(C(=O)O)c1)C1CCCCCC1 (single isomer, unassigned) [Example 173]	< 10 nM	< 10 nM	
CCCC(NC(=O)c1ccc(-c2c(Cl)cccc2-c2nc3ccccc3[nH]2)c(C(=O)O)c1)c1ccccn1 (single isomer, unassigned) [Example 175]	< 10 nM	< 10 nM	

Results, then the compound that gave them:

EC50 [1]	EC50 [2]	EC50 [3]	SMILES
< 10 nM	< 10 nM		CC(C)CC(NC(=O)c1ccc(-c2cc(Cl)ccc2-c2nc3ccccc3[nH]2)c(C(=O)O)c1)c1ccccc1 (racemic) [Example 210, 2′-(1H-1,3-benzodiazol-2-yl)-5′-chloro-4-[(3-methyl-1-phenylbutyl)carbamoyl]-[1,1′-biphenyl]-2-carboxylic acid]
10 to 100 nM	10 to 100 nM		CC(C)(C)CC(NC(=O)c1ccc(-c2cc(Cl)ccc2-c2nc3ccccc3[nH]2)c(C(=O)O)c1)c1ccccc1 (racemic) [Example 212, 2′-(1H-1,3-benzodiazol-2-yl)-5′-chloro-4-[(3,3-dimethyl-1-phenylbutyl)carbamoyl]-[1,1′-biphenyl]-2-carboxylic acid]
10 to 100 nM	10 to 100 nM		CCC(NC(=O)c1ccc(-c2cc(Cl)ccc2-c2nc3ccccc3[nH]2)c(C(=O)O)c1)c1ccccn1 (racemic) [Example 213, 2′-(1H-1,3-benzodiazol-2-yl)-5′-chloro-4-{[1-(pyridin-2-yl)propyl]carbamoyl}-[1,1′-biphenyl]-2-carboxylic acid]
10 to 100 nM	10 to 100 nM		CCC(NC(=O)c1ccc(-c2cc(Cl)ccc2-c2nc3ccccc3[nH]2)c(C(=O)O)c1)c1ccncc1 (racemic) [Example 214, 2′-(1H-1,3-benzodiazol-2-yl)-5′-chloro-4-{[1-(pyridin-4-yl)propyl]carbamoyl}-[1,1′-biphenyl]-2-carboxylic acid]
< 10 nM	< 10 nM		CCC[C@H](NC(=O)c1ccc(-c2c(Cl)cccc2-c2nc3ccccc3[nH]2)c(C(=O)O)c1)c1ccccc1OC(F)(F)F (single isomer, unassigned) [Example 176]
< 10 nM	< 10 nM		CCC[C@H](NC(=O)c1ccc(-c2c(Cl)cccc2-c2nc3ccccc3[nH]2)c(C(=O)O)c1)C1CCCCC1 (single isomer, unassigned) [Example 177]
< 10 nM	< 10 nM		CCCC(NC(=O)c1ccc(-c2c(Cl)cccc2-c2nc3ccccc3[nH]2)c(C(=O)O)c1)c1c(F)cccc1OC (single isomer, unassigned) [Example 178]
< 10 nM	< 10 nM		CCCC(NC(=O)c1ccc(-c2c(Cl)cccc2-c2nc3ccccc3[nH]2)c(C(=O)O)c1)c1ccc(Cl)cc1F (single isomer, unassigned) [Example 182]
< 10 nM	< 10 nM		CCCC(NC(=O)c1ccc(-c2c(Cl)cccc2-c2nc3ccccc3[nH]2)c(C(=O)O)c1)C1CCCC1 (single isomer, unassigned) [Example 183]
< 10 nM			CCCC(NC(=O)c1ccc(-c2c(Cl)cccc2-c2nc3ccccc3[nH]2)c(C(=O)O)c1)c1ccc(Cl)cc1F (single isomer, unassigned) [Example 184]
< 10 nM	< 10 nM		CCC[C@H](NC(=O)c1ccc(-c2c(Cl)cccc2-c2nc3ccccc3[nH]2)c(C(=O)O)c1)c1cccc(Cl)c1 (single isomer, unassigned) [Example 185]
< 10 nM	< 10 nM		CCCC(NC(=O)c1ccc(-c2c(Cl)cccc2-c2nc3ccccc3[nH]2)c(C(=O)O)c1)c1cncs1 (single isomer, unassigned) [Example 186]
10 to 100 nM	10 to 100 nM		CCCC(NC(=O)c1ccc(-c2c(Cl)cccc2-c2nc3ccccc3[nH]2)c(C(=O)O)c1)c1ccccc1C(F)(F)F (single isomer, unassigned) [Example 189]

Source: patent US11498903B2 (BRISTOL-MYERS SQUIBB COMPANY, priority 2017, dated 2022)
